# Values quoted from earlier work, collected in patent US20080038364A1, “Methods of processing body parts for surgery” (priority 2006, published 2008).
# Read-outs that look alike come from different tables or passages of the source.
# Columns and labels:
# [1] = system: bacteria, viruses and other microorganisms; details: compared with chlorine
smiles,measurement,setting,value
O=[O+][O-] [ozone],CT for Virus Inactivation,"virus organisms; 2.0 log inactivation, 5 °C",0.6 CT units
same,CT for Virus Inactivation,"virus organisms; 2.0 log inactivation, 10 °C",0.5 CT units
same,CT for Virus Inactivation,"virus organisms; 2.0 log inactivation, 15 °C",0.3 CT units
same,CT for Virus Inactivation,"virus organisms; 2.0 log inactivation, 20 °C",0.25 CT units
same,CT for Virus Inactivation,"virus organisms; 2.0 log inactivation, 25 °C",0.15 CT units
same,CT for Virus Inactivation,"virus organisms; 3.0 log inactivation, 5 °C",0.9 CT units
same,CT for Virus Inactivation,"virus organisms; 3.0 log inactivation, 10 °C",0.8 CT units
same,CT for Virus Inactivation,"virus organisms; 3.0 log inactivation, 15 °C",0.5 CT units
same,CT for Virus Inactivation,"virus organisms; 3.0 log inactivation, 20 °C",0.4 CT units
same,CT for Virus Inactivation,"virus organisms; 3.0 log inactivation, 25 °C",0.25 CT units
same,CT for Virus Inactivation,"virus organisms; 4.0 log inactivation, 5 °C",1.2 CT units
same,CT for Virus Inactivation,"virus organisms; 4.0 log inactivation, 10 °C",1.0 CT units
same,CT for Virus Inactivation,"virus organisms; 4.0 log inactivation, 15 °C",0.6 CT units
same,CT for Virus Inactivation,"virus organisms; 4.0 log inactivation, 20 °C",0.5 CT units
same,CT for Virus Inactivation,"virus organisms; 4.0 log inactivation, 25 °C",0.3 CT units
same,half-life of ozone gas breaking down to oxygen,,20 min
same,disinfectant power relative to chlorine,[1],10 times
same,CT for Giardia Inactivation,"Giardia; 0.5 log inactivation, 5 °C",0.32 CT units
same,CT for Giardia Inactivation,"Giardia; 0.5 log inactivation, 10 °C",0.23 CT units
same,CT for Giardia Inactivation,"Giardia; 0.5 log inactivation, 15 °C",0.16 CT units
same,CT for Giardia Inactivation,"Giardia; 0.5 log inactivation, 20 °C",0.12 CT units
same,CT for Giardia Inactivation,"Giardia; 0.5 log inactivation, 25 °C",0.08 CT units
same,CT for Giardia Inactivation,"Giardia; 1.0 log inactivation, 5 °C",0.63 CT units
same,CT for Giardia Inactivation,"Giardia; 1.0 log inactivation, 10 °C",0.48 CT units
same,CT for Giardia Inactivation,"Giardia; 1.0 log inactivation, 15 °C",0.32 CT units
same,CT for Giardia Inactivation,"Giardia; 1.0 log inactivation, 20 °C",0.24 CT units
same,CT for Giardia Inactivation,"Giardia; 1.0 log inactivation, 25 °C",0.16 CT units
same,CT for Giardia Inactivation,"Giardia; 1.5 log inactivation, 5 °C",0.95 CT units
same,CT for Giardia Inactivation,"Giardia; 1.5 log inactivation, 10 °C",0.72 CT units
same,CT for Giardia Inactivation,"Giardia; 1.5 log inactivation, 15 °C",0.48 CT units
same,CT for Giardia Inactivation,"Giardia; 1.5 log inactivation, 20 °C",0.36 CT units
same,CT for Giardia Inactivation,"Giardia; 1.5 log inactivation, 25 °C",0.24 CT units
same,CT for Giardia Inactivation,"Giardia; 2.0 log inactivation, 5 °C",1.3 CT units
same,CT for Giardia Inactivation,"Giardia; 2.0 log inactivation, 10 °C",0.95 CT units
same,CT for Giardia Inactivation,"Giardia; 2.0 log inactivation, 15 °C",0.63 CT units
same,CT for Giardia Inactivation,"Giardia; 2.0 log inactivation, 20 °C",0.48 CT units
same,CT for Giardia Inactivation,"Giardia; 2.0 log inactivation, 25 °C",0.32 CT units
same,CT for Giardia Inactivation,"Giardia; 2.5 log inactivation, 5 °C",1.6 CT units
same,CT for Giardia Inactivation,"Giardia; 2.5 log inactivation, 10 °C",1.2 CT units
same,CT for Giardia Inactivation,"Giardia; 2.5 log inactivation, 15 °C",0.79 CT units
same,CT for Giardia Inactivation,"Giardia; 2.5 log inactivation, 20 °C",0.60 CT units
same,CT for Giardia Inactivation,"Giardia; 2.5 log inactivation, 25 °C",0.40 CT units
same,CT for Giardia Inactivation,"Giardia; 3.0 log inactivation, 5 °C",1.9 CT units
same,CT for Giardia Inactivation,"Giardia; 3.0 log inactivation, 10 °C",1.4 CT units
same,CT for Giardia Inactivation,"Giardia; 3.0 log inactivation, 15 °C",0.95 CT units
same,CT for Giardia Inactivation,"Giardia; 3.0 log inactivation, 20 °C",0.72 CT units
same,CT for Giardia Inactivation,"Giardia; 3.0 log inactivation, 25 °C",0.48 CT units
